Experimental findings from ChEMBL document CHEMBL3991601, “The target landscape of clinical kinase drugs” (Science, 2017) are described below.

The target of assay [1] is Non-receptor tyrosine-protein kinase TYK2 (Homo sapiens, UniProt P29597).
For assay [2], the target named is Mitogen-activated protein kinase 10 (Homo sapiens, UniProt P53779).
Assay [3] has as its target Bone morphogenetic protein receptor type-1B (Homo sapiens, UniProt O00238).
For another assay, the target named is T1, ADP/ATP translocase 2 (Homo sapiens, UniProt P05141).
T1 sequence (P05141 whole entry): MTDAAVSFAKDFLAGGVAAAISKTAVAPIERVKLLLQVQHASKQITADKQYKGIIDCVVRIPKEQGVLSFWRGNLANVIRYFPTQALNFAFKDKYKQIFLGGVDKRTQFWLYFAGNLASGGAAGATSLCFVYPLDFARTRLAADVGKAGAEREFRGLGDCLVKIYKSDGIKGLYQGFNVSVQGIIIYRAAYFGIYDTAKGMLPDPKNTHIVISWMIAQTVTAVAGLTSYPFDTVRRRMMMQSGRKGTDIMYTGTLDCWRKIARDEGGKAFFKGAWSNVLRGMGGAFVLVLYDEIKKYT

The target in assay [4] is Protein-tyrosine kinase 6 (Homo sapiens, UniProt Q13882).
The target of assay [5] is Serine/threonine-protein kinase 10 (Homo sapiens, UniProt O94804).
Assay [6] deals with Serine/threonine-protein kinase SIK2 (Homo sapiens, UniProt Q9H0K1).
The target of assay [7] is T2, Serine/threonine-protein kinase ULK1 (Homo sapiens, UniProt O75385).
T2 sequence (O75385 whole entry): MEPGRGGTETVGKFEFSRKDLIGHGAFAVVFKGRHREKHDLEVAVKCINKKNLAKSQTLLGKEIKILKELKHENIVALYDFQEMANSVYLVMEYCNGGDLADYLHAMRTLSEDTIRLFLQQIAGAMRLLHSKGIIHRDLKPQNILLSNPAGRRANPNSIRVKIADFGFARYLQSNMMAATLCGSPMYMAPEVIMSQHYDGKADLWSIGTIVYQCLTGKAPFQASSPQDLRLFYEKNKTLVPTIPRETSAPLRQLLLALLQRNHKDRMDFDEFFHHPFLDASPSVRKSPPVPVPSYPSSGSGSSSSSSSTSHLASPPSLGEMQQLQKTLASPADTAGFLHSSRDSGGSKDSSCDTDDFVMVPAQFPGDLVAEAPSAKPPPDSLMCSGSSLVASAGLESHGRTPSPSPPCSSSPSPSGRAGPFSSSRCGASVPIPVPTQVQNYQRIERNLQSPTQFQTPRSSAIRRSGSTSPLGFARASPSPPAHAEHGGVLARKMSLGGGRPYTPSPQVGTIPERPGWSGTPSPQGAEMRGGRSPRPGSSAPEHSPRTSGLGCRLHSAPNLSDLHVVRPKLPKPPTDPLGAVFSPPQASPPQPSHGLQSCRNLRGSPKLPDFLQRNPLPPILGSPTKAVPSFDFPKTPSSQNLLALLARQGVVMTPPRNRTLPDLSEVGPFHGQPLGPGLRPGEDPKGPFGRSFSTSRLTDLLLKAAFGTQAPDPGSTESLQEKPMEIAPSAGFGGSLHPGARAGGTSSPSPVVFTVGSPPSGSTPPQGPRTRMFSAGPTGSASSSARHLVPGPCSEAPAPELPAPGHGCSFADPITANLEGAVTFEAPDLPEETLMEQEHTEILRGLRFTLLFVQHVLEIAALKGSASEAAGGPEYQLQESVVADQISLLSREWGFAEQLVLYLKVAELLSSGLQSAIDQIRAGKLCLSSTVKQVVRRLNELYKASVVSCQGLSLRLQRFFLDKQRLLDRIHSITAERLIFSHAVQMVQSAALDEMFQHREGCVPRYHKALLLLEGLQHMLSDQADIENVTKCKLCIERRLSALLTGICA

Assay [8] addresses Mitogen-activated protein kinase kinase kinase kinase 4 (Homo sapiens, UniProt O95819).
In another assay the target is Wee1-like protein kinase (Homo sapiens, UniProt P30291).
The next assay has as its target GTP-binding protein 4 (Homo sapiens, UniProt Q9BZE4).
For assay [9], the target named is T3, Acyl-CoA dehydrogenase family member 11 (Homo sapiens, UniProt Q709F0).
T3 sequence (Q709F0 whole entry): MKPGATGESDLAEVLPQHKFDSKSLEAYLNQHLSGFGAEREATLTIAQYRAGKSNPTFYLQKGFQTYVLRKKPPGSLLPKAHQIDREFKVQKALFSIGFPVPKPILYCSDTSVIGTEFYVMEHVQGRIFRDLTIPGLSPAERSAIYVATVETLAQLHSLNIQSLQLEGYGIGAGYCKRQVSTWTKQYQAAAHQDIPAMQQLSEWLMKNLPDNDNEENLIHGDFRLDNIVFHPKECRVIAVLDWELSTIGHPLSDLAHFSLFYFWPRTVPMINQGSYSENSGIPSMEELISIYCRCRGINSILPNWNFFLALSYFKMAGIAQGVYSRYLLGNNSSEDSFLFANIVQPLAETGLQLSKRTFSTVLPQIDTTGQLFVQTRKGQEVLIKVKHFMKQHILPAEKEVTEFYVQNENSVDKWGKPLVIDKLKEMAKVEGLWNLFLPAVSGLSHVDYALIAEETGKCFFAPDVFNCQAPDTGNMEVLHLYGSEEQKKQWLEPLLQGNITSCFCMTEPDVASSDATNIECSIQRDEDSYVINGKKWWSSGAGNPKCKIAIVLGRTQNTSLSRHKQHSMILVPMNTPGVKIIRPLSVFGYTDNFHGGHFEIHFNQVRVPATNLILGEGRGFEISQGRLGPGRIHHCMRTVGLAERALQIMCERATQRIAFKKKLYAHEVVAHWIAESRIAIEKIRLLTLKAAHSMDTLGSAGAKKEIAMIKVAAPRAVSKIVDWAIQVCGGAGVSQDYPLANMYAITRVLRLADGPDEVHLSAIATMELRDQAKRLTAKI

Assay [10] addresses Cyclin-dependent kinase 3 (Homo sapiens, UniProt Q00526).

Calls of active or inactive are those of the source. Cut-off read from the data, not from the text of the source, for most assays here: actives have a measured Kd and inactives only a lower limit. A value given as a limit tells only on which side of the number the result lay.
Note: in the data inactive means no Kd found up to 30 µM.

Chain of Mitogen-activated protein kinase 10 (P53779 whole entry): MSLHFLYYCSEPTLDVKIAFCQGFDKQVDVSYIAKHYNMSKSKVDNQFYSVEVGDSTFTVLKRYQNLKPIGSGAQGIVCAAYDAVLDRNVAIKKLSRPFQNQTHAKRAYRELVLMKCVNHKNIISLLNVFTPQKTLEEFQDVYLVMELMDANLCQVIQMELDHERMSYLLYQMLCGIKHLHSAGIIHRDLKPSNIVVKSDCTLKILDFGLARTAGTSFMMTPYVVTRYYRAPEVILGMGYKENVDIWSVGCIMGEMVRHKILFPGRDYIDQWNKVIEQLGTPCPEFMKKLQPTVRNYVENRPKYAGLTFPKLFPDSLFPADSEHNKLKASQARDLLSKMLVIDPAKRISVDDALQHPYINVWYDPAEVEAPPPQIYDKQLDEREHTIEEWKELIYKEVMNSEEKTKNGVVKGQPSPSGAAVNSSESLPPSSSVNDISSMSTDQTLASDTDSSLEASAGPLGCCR
Chain of Cyclin-dependent kinase 3 (Q00526 whole entry): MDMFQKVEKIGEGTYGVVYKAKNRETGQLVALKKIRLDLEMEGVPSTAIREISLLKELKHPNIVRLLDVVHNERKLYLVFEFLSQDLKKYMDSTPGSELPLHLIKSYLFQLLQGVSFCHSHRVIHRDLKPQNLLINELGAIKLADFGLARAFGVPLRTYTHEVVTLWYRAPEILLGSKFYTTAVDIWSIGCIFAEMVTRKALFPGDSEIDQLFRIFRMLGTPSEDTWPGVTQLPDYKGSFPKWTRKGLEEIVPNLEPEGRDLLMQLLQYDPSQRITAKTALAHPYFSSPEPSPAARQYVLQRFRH
Chain of Non-receptor tyrosine-protein kinase TYK2 (P29597 whole entry): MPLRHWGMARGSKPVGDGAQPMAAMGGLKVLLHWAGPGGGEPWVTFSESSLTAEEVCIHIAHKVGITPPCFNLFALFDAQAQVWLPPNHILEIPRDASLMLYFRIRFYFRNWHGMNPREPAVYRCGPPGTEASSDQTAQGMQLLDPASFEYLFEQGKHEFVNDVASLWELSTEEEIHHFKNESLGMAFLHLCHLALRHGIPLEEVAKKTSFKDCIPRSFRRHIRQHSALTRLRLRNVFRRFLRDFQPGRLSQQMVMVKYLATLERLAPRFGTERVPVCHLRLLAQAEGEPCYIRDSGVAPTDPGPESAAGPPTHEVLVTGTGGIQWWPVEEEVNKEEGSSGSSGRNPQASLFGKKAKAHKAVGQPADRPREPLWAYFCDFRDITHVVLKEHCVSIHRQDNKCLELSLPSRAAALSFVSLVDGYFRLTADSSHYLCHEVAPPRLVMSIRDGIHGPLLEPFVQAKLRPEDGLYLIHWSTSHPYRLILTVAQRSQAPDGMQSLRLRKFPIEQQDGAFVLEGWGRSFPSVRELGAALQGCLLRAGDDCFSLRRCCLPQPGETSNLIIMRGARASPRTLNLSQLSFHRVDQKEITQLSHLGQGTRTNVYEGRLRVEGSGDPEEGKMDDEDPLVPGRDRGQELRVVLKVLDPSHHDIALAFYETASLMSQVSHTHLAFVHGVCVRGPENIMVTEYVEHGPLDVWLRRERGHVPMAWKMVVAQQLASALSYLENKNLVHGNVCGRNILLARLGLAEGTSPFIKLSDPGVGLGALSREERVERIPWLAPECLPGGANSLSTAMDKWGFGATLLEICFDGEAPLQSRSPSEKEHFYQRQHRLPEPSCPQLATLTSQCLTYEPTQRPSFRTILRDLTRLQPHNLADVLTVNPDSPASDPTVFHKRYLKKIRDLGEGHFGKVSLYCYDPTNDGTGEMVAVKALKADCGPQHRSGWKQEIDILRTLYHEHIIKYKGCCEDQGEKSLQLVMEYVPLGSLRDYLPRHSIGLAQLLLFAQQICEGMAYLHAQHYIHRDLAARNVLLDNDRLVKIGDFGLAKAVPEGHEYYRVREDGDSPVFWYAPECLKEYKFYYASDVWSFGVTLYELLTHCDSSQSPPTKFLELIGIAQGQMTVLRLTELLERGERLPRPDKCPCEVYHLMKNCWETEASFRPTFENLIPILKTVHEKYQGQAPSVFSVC
Chain of Serine/threonine-protein kinase 10 (O94804 whole entry): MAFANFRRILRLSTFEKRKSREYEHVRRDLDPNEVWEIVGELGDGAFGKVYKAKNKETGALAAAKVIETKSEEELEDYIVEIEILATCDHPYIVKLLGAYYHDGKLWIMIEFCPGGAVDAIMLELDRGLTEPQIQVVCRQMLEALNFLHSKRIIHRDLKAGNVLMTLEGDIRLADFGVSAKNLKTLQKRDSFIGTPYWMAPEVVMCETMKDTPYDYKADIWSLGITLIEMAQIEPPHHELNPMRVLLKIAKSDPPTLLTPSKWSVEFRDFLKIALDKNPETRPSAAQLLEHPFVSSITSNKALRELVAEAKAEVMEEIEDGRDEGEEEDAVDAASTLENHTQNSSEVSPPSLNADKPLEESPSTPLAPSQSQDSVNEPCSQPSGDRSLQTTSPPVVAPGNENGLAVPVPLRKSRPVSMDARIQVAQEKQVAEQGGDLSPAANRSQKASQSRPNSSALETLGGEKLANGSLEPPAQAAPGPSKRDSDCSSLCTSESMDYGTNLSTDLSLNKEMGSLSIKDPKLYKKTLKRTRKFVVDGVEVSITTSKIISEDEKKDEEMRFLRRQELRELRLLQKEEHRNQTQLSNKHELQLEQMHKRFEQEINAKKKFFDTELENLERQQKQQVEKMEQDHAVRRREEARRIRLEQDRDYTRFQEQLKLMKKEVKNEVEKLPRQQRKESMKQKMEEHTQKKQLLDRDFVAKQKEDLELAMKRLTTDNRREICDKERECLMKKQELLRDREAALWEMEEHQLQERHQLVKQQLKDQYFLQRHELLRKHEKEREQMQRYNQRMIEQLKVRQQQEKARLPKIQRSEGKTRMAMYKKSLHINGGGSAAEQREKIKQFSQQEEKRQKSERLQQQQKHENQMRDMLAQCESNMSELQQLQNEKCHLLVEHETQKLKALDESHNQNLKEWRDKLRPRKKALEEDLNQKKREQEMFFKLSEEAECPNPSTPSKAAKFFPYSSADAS
Chain of Bone morphogenetic protein receptor type-1B (O00238 whole entry): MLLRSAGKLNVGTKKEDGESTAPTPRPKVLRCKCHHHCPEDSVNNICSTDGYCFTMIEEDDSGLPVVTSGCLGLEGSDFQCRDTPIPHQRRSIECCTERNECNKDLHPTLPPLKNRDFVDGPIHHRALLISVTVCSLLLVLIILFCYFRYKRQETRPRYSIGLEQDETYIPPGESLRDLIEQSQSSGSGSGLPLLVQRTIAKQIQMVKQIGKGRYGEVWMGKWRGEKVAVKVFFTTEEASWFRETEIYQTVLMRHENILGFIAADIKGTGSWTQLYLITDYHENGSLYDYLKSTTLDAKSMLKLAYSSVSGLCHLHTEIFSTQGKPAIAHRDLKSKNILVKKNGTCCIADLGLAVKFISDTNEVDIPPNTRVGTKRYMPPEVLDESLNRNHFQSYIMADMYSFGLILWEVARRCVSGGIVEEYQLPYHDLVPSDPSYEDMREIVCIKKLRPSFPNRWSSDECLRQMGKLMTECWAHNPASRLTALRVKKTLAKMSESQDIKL
Chain of Serine/threonine-protein kinase SIK2 (Q9H0K1 whole entry): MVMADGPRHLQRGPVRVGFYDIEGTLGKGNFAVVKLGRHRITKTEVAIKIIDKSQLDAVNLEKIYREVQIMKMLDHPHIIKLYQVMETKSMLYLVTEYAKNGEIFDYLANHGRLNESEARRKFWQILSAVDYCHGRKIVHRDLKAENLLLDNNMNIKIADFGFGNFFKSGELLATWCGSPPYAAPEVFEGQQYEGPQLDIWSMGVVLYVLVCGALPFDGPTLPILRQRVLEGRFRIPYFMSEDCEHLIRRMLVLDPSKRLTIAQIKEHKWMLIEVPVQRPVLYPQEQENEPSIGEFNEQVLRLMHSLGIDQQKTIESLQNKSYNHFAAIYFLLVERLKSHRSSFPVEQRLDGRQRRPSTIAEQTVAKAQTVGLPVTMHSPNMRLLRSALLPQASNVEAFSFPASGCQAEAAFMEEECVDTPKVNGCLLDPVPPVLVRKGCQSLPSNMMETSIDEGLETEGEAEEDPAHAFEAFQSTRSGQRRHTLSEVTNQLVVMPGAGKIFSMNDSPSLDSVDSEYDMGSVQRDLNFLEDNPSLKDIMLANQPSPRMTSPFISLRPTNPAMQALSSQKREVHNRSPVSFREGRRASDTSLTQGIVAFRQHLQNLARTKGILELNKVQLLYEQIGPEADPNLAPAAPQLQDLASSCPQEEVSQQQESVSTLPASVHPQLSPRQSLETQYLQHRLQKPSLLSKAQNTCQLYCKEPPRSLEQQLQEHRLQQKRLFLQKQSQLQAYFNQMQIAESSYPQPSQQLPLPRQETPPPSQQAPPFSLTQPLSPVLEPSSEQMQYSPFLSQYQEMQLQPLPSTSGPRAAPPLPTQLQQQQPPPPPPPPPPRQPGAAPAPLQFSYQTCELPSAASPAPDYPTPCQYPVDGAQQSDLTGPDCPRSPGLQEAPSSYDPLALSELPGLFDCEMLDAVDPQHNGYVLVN
Chain of Protein-tyrosine kinase 6 (Q13882 whole entry): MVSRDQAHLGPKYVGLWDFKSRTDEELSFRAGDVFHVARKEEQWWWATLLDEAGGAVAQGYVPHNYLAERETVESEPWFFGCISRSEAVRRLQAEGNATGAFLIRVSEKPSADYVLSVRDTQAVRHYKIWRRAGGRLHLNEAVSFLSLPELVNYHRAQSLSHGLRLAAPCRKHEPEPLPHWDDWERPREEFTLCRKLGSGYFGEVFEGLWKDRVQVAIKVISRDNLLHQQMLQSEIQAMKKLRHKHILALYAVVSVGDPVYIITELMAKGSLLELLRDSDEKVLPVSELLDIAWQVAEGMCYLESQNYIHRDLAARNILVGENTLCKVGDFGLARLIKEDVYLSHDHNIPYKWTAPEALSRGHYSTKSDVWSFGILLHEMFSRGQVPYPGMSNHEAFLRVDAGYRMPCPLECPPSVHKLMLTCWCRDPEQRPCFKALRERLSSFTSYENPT

Consider `O=C(c1ccc(F)c(F)c1Nc1ccc(I)cc1F)N1CC(O)([C@@H]2CCCCN2)C1` [COBIMETINIB], for which the Kd (in [1]; in assay [2]; in [3]; at ADP/ATP translocase 2; in assay [4]; in assay [5]) was > 30 µM (inactive) each time. The Kd (in [6]; in [7]; in assay [8]; at Wee1-like protein kinase; on GTP-binding protein 4; in [9]) was > 30 µM (inactive) each time.

As for `Cc1nc(N)sc1-c1ccnc(Nc2ccc(N3CCOCC3)cc2)n1` [CYC-116], the Kd in [2] was 0.147 µM (active); in assay [3], > 30 µM (inactive); on ADP/ATP translocase 2, > 30 µM (inactive); in [6] it was 1.4 µM (active); in assay [7] it was > 30 µM (inactive); at GTP-binding protein 4 it was > 30 µM (inactive). The Kd in assay [9] is > 30 µM (inactive).

Take `Cc1cc(Nc2cc(N3CCN(C)CC3)nc(/C=C/c3ccccc3)n2)n[nH]1` [ENMD-2076]: the Kd (in assay [2]; in assay [3]; on ADP/ATP translocase 2; in assay [6]; in [10]; on Wee1-like protein kinase) was > 30 µM (inactive) throughout. For the same compound, the Kd (on GTP-binding protein 4; in [9]) was > 30 µM (inactive) in each case.

As for `O=C(Nc1cccc(Cl)c1)Nc1ncc(CCNc2ncnc3ccsc23)s1` [SNS-314], the Kd (in assay [3]; at ADP/ATP translocase 2; in assay [5]; in assay [6]; in assay [7]; in assay [10]) was > 30 µM (inactive) each time. Moreover, the Kd (at Wee1-like protein kinase; on GTP-binding protein 4; in [9]) was > 30 µM (inactive) each time.

As to `Nc1nc(N)c2nc(-c3cccc(O)c3)c(-c3cccc(O)c3)nc2n1` [TG100-115], the Kd (at ADP/ATP translocase 2; in [4]; on GTP-binding protein 4; in [9]) was > 30 µM (inactive) each time.

Take `CN1CCN(c2ccc3nc(-c4c(N)c5c(F)cccc5[nH]c4=O)[nH]c3c2)CC1` [DOVITINIB]: the Kd (on ADP/ATP translocase 2; at GTP-binding protein 4; in assay [9]) was > 30 µM (inactive) in each case.

As for `CCc1cnn2c(NCc3ccc[n+]([O-])c3)cc(N3CCCC[C@H]3CCO)nc12` [DINACICLIB], the Kd (in [1]; in [2]; in assay [3]; at ADP/ATP translocase 2; in [4]; in [5]) was > 30 µM (inactive) each time. In addition, the Kd (in assay [6]; in assay [7]; at Wee1-like protein kinase; at GTP-binding protein 4; in assay [9]) was > 30 µM (inactive) each time.

For the compound `OCCn1cc(-c2cnc3nnn(Cc4ccc5ncccc5c4)c3n2)cn1` [PF-04217903], the Kd (in [1]; in [2]; in [3]; at ADP/ATP translocase 2; in [4]; in assay [5]) was > 30 µM (inactive) each time. The Kd (in [6]; in assay [7]; in assay [10]; at Wee1-like protein kinase; at GTP-binding protein 4; in assay [9]) was > 30 µM (inactive) in each case.

As to `CNC(=O)c1ccc(-c2cnc3ncc(Cc4ccc5ncccc5c4)n3n2)cc1F` [CAPMATINIB], the Kd (in [1]; in assay [2]; in assay [3]; at ADP/ATP translocase 2; in assay [4]; in [5]) was > 30 µM (inactive) each time. In addition, the Kd (in assay [6]; in [7]; in assay [8]; at Wee1-like protein kinase; on GTP-binding protein 4; in assay [9]) was > 30 µM (inactive) throughout.

Take `CN1CCC(COc2cnc(-c3cccc(Cn4nc(-c5cccc(C#N)c5)ccc4=O)c3)nc2)CC1` [TEPOTINIB]: the Kd (in [2]; in assay [3]; at ADP/ATP translocase 2; in assay [4]; in [5]; in assay [6]) was > 30 µM (inactive) throughout. The Kd (in assay [7]; in [8]; in [10]; at Wee1-like protein kinase; on GTP-binding protein 4; in [9]) was > 30 µM (inactive) throughout.

`COc1cc2nccc(Oc3ccc(NC(=O)NC4CC4)c(Cl)c3)c2cc1C(N)=O` [LENVATINIB]: the Kd in assay [1] is > 30 µM (inactive); in assay [3] it was > 30 µM (inactive); on ADP/ATP translocase 2 it was > 30 µM (inactive); in [4] it was 0.173 µM; in [5], 0.793 µM (active); in assay [6], > 30 µM (inactive). In addition, the Kd (in assay [7]; in [8]; on Wee1-like protein kinase; on GTP-binding protein 4; in assay [9]) was > 30 µM (inactive) throughout.

For the compound `Cc1cn(-c2cc(NC(=O)c3ccc(C)c(Nc4nccc(-c5cccnc5)n4)c3)cc(C(F)(F)F)c2)cn1` [NILOTINIB], the Kd (at ADP/ATP translocase 2; at GTP-binding protein 4; in assay [9]) was > 30 µM (inactive) each time.
